Experimental data: patent US9624249B2, “Nucleoside kinase bypass compositions and methods” (Merck Sharp & Dohme Corp., priority 2013, dated 2017)
Where two headings read alike, the source gives them in different places.

Columns and labels:
[1] = test system: hepatitis virus C (HCV) genotype 1b; experiment: HCV subgenomic replicon assay (RHEPTAQ), genotype 1b; type: cell-based
Text: (§1) Table 3 and Table 4 summarize the measured activities of these prodrugs as assessed in a subgenomic replicon assay (RHEPTAQ), against genotypes 1a, 1b and 2a.

[2] = test system: hepatitis virus C (HCV) genotype 1a; experiment: HCV subgenomic replicon assay (RHEPTAQ), genotype 1a; type: cell-based
Text: as §1

[3] = test system: hepatitis virus C (HCV) genotype 2a; experiment: HCV subgenomic replicon assay (RHEPTAQ), genotype 2a; type: cell-based
Text: as §1

[4] = test system: HCV GT1b; conditions: Cho et al. 2012, Table 1; cited from earlier work
[5] = test system: HIV-1 (H9IIIB virus); experiment: Viking assay: multiple round HIV-1 infection assay in MT4-GFP cells; type: cell-based
Protocol: Assessing Antiviral Potency in a Multiple Round HIV-1 Infection Assay
The antiviral activity of the tenofovir prodrugs was assessed in a Viking assay performed as follows. HIV-1 replication was monitored using MT4-gag-GFP clone D3 (hereafter designate MT4-GFP), which are MT-4 cells modified to harbor a GFP reporter gene, the expression of which is dependent on the HIV-1 expressed proteins tat and rev. Productive infection of an MT4-GFP cell with HIV-1 results in GFP expression approximately 24 h post-infection.
MT4-GFP cells were maintained at 37° C./5% CO2/90% relative humidity in RPMI 1640 supplemented with 10% fetal bovine serum, 100 U/ml penicillin/streptomycin, and 400 μg/ml G418 to maintain the reporter gene. For infections, MT4-GFP cells were placed in the same medium lacking G418 and infected overnight with H9IIIB virus at an approximate multiplicity of infection of 0.01 in the same incubation conditions. Cells were then washed and resuspended in either RPMI 1640 containing 10% normal human serum at 1.6×10^5 cells/mL (10% NHS conditions) or in 100% normal human serum at 2×10^5 cells/mL (100% NHS conditions). Compound plates were prepared by dispensing compounds dissolved in DMSO into wells of 384 well poly D lysine-coated plates (0.2 μl/well) using an ECHO acoustic dispenser. Each compound was tested in a 10 point serial 3-fold dilution (typical final concentrations: 4.2 μM-0.21 nM). Controls included no inhibitor (DMSO only) and a combination of three antiviral agents (efavirenz, indinavir, and the integrase strand transfer inhibitor N1-ethyl-N1-((7S,10R)-2-((4-fluorobenzyl)-carbamoyl)-3-hydroxy-7-methoxy-4-oxo-4,6,7,8,9,10-hexahydropyrimido-[1,2-a]azepin-10-yl)-N2,N2-dimethyloxalamide at final concentrations of 4 μM each). Cells were added (50 μL/well) to compound plates and the infected cells were maintained at 37° C./5% CO2/90% relative humidity.
Infected cells were quantified at two time points, ˜48 h and ˜72 h post-infection, by counting the number of green cells in each well using an Acumen eX3 scanner. The increase in the number of green cells over ˜24 h period gives the reproductive ratio, R0, which is typically 5-15 and has been shown experimentally to be in logarithmic phase (data not shown) Inhibition of R0 is calculated for each well, and IC50s determined by non-linear 4-parameter curve fitting.

[6] = CTG LD50 (cytotoxicity)
[7] = Tox: EdU/CellCount CC50; type: cell-based
[8] = test system: HIV-1; conditions: HIV-1, PBMCs; cited from earlier work
[9] = test system: peripheral blood mononuclear cells (PBMCs); conditions: pbmc; cited from earlier work
[10] = Hepatitis C virus, RHEPTAQ replicon, genotype 1a; read-out: EC50(1a)
[11] = Hepatitis C virus, RHEPTAQ replicon, genotype 1a; read-out: EC90(1a)
[12] = Hepatitis C virus, read-out: EC50(2a), RHEPTAQ replicon, genotype 2a
[13] = Hepatitis C virus, read-out: EC90(2a), RHEPTAQ replicon, genotype 2a
[14] = Hepatitis C virus, RHEPTAQ replicon, genotype 1b, read-out: EC50(1b)
[15] = Hepatitis C virus, RHEPTAQ replicon, genotype 1b, read-out: EC90(1b)
[16] = Hepatitis C virus, RHEPTAQ replicon, genotype 2a, read-out: EC90(2a)
[17] = RHEPTAQ replicon, genotype 1b, read-out: EC50(1b)
[18] = RHEPTAQ replicon, genotype 1b, read-out: EC90(1b)
[19] = RHEPTAQ replicon, genotype 1a; read-out: EC50(1a)
[20] = RHEPTAQ replicon, genotype 1a; read-out: EC90(1a)
[21] = RHEPTAQ replicon, genotype 2a, read-out: EC50(2a)
[22] = RHEPTAQ replicon, genotype 2a, read-out: EC90(2a)
[23] = Human immunodeficiency virus 1, read-out: Viking IP
[24] = Human immunodeficiency virus 1, inhibition of reproductive ratio R0, MT4-GFP cells infected with H9IIIB, serum condition not stated, read-out: Viking IP

C#CCO[C@H]1CSSCC1OP(=O)(NCc1ccccc1)OCC1O[C@@H](n2ccc3c(N)ncnc32)[C@](C)(O)[C@@H]1O (some centres unmarked)
EC50 ([1]; Hepatitis C virus, read-out: EC50(1b), RHEPTAQ replicon, genotype 1b): 8500 nM | EC90 ([1]; Hepatitis C virus, read-out: EC90(1b), RHEPTAQ replicon, genotype 1b): 17700 nM | EC50 [2, 10]: 12800 nM | EC90 [2, 11]: 25500 nM | EC50 [3, 12]: 1900 nM | EC90 [3, 13]: 7900 nM

COCCOCCOCCO[C@H]1CSSCC1OP1(=O)OCC2O[C@@H](n3ccc4c(N)ncnc43)[C@](C)(O)[C@@H]2O1 (some centres unmarked)
EC50 [1, 14]: 183 nM | EC90 [1, 15]: 448 nM | EC50 [2, 10]: 1000 nM | EC90 [2, 11]: 3300 nM | EC50 ([3]; Hepatitis C virus, RHEPTAQ replicon, genotype 2a, read-out: EC50(2a)): 249 nM | EC90 [3, 16]: 896 nM

C[C@@]1(O)[C@H](O)[C@@H](CO)O[C@H]1n1ccc(=O)[nH]c1=O [2′-C-Me-U, 2′-C-methyl-uridine]
EC50 [4]: 15200 nM

C[C@@]1(O)[C@@H]2OP(=O)(OC3CSSC[C@@H]3OCc3ccccc3)OCC2O[C@H]1n1ccc(=O)[nH]c1=O (single isomer, unassigned) [drawing 109 isomer 1]
EC50 [1, 17]: 110 nM | EC90 [1, 18]: 383 nM | EC50 [2, 19]: 70 nM | EC90 [2, 20]: 233 nM | EC50 [3, 21]: 90 nM | EC90 [3, 22]: 442 nM

Cc1ccc(OP(=O)(CO[C@H](C)Cn2cnc3c(N)ncnc32)OC2CSSC[C@@H]2OCc2ccccc2)cc1 (some centres unmarked) [Entry 9]
IC50 [5, 23]: 1640 nM | CTG LD50 [6]: >42.02 µM

Cc1cccc(OP(=O)(CO[C@H](C)Cn2cnc3c(N)ncnc32)OC2CSSC[C@@H]2OCc2ccccc2)c1 (some centres unmarked) [Entry 8]
IC50 [5, 23]: 1120 nM | CTG LD50 [6]: >42.02 µM

C[C@H](Cn1cnc2c(N)ncnc21)OCP(=O)(Oc1cccc(F)c1)OC1CSSC[C@@H]1OCc1ccccc1 (some centres unmarked) [Entry 3]
IC50 [5, 23]: 620 nM | CTG LD50 [6]: >42.02 µM

C[C@@]1(O)[C@@H]2OP(=S)(OC3CSSC[C@@H]3OCc3ccccc3)OCC2O[C@H]1n1ccc(=O)[nH]c1=O (single isomer, unassigned) [drawing 110 isomer 1 and 2]
EC50 ([2]; read-out: EC50(1a); RHEPTAQ replicon, genotype 1a): 4000 nM | EC90 ([2]; read-out: EC90(1a); RHEPTAQ replicon, genotype 1a): 8000 nM

C[C@@]1(O)[C@@H]2OP(=O)(OC3CSSC[C@@H]3OCc3ccccc3)OCC2O[C@H]1n1ccc(=O)[nH]c1=O (single isomer, unassigned) [drawing 109 isomer 2]
EC50 [1, 17]: 37 nM | EC90 [1, 18]: 245 nM | EC50 [2, 19]: 50 nM | EC90 [2, 20]: 154 nM | EC50 [3, 21]: 44 nM | EC90 [3, 22]: 244 nM

C[C@@]1(O)[C@@H]2OP(=O)(OC3CSSC[C@@H]3OCc3ccccc3)OCC2O[C@H]1n1ccc(=O)[nH]c1=O (single isomer, unassigned) [drawing 112]
EC50 ([1]; Hepatitis C virus, Table 4, genotype 1b, read-out: Replicon: EC50 (1b)): 110 nM | CC50 ([7]; CellCount readout, read-out: Tox: CellCount CC50): 8500 nM | CC50 ([7]; EdU readout, read-out: Tox: EdU CC50): 4100 nM | EC50 ([2]; Hepatitis C virus, Table 4, genotype 1a; read-out: Replicon: EC50 (1a)): 70 nM | EC50 ([3]; Hepatitis C virus, Table 4, genotype 2a, read-out: Replicon: EC50 (2a)): 90 nM

COc1cccc(OP(=O)(CO[C@H](C)Cn2cnc3c(N)ncnc32)OC2CSSC[C@@H]2OCc2ccccc2)c1 (some centres unmarked) [Entry 13]
IC50 [5, 23]: 1810 nM | CTG LD50 [6]: >8.403 µM

C[C@H](Cn1cnc2c(N)ncnc21)OCP(=O)(Oc1ccccc1)OC1CSSC[C@H]1OCc1ccccc1 (some centres unmarked) [Entry 14]
IC50 [5, 23]: 1260 nM | CTG LD50 [6]: >8.403 µM

COCCOCCOCCO[C@H]1CSSCC1OP1(=O)OCC2O[C@@H](n3ccc(=O)[nH]c3=O)[C@](C)(O)[C@@H]2O1 (single isomer, unassigned) [drawing 111 isomer 1 and 2]
EC50 [1, 14]: 2000 nM | EC90 [1, 15]: 8000 nM | EC50 [2, 10]: 4000 nM | EC90 [2, 11]: 9000 nM | EC90 [3, 16]: 21000 nM | EC50 [3, 21]: 6000 nM

C[C@H](Cn1cnc2c(N)ncnc21)OCP(=O)(Oc1ccccc1F)OC1CSSC[C@@H]1OCc1ccccc1 (some centres unmarked) [Entry 2]
IC50 [5, 23]: 605 nM | CTG LD50 [6]: >8.403 µM

C[C@@]1(O)[C@@H]2OP(=O)(OC3CSSC[C@@H]3OCc3ccccc3)OCC2O[C@H]1n1ccc(=O)[nH]c1=O (single isomer, unassigned) [drawing 109 isomer 3 and 4]
EC50 [1, 17]: 362 nM | EC90 [1, 18]: 783 nM | EC50 [2, 19]: 305 nM | EC90 [2, 20]: 782 nM | EC50 [3, 21]: 315 nM | EC90 [3, 22]: 1070 nM

C[C@@]1(O)[C@H](O)[C@@H](COP(=O)(O)OP(=O)(O)OP(=O)(O)O)O[C@H]1n1ccc(=O)[nH]c1=O [triphosphate 2′-C-Me-U]
EC50 [4]: 1320 nM

C#CCO[C@H]1CSSCC1OP1(=O)OCC2O[C@@H](n3ccc4c(N)ncnc43)[C@](C)(O)[C@@H]2O1 (some centres unmarked)
EC50 [1, 14]: 78 nM | EC90 [1, 15]: 318 nM | EC50 [2, 10]: 159 nM | EC90 [2, 11]: 991 nM | EC50 [3, 12]: 135 nM | EC90 [3, 13]: 115 nM

C[C@H](Cn1cnc2c(N)ncnc21)OCP(=O)(Oc1ccc(F)cc1)OC1CSSC[C@@H]1OCc1ccccc1 (some centres unmarked) [Entry 4]
IC50 [5, 23]: 2000 nM | CTG LD50 [6]: >8.403 µM

C[C@H](Cn1cnc2c(N)ncnc21)OCP(=O)(O)OC1CSSC[C@@H]1OCc1ccccc1 (some centres unmarked) [Entry 15]
IC50 [5, 24]: > 8400 nM

C[C@H](Cn1cnc2c(N)ncnc21)OCP(=O)(Oc1ccccc1)OC1CSSC[C@@H]1OCc1ccccc1 (some centres unmarked) [Entry 1]
IC50 [5, 23]: 1260 nM | CTG LD50 [6]: >8.403 µM

C[C@H](Cn1cnc2c(N)ncnc21)OCP(=O)(Oc1ccc(Cl)cc1)OC1CSSC[C@@H]1OCc1ccccc1 (some centres unmarked) [Entry 5]
IC50 [5, 23]: 1590 nM | CTG LD50 [6]: >8.403 µM

COc1ccc(OP(=O)(CO[C@H](C)Cn2cnc3c(N)ncnc32)OC2CSSC[C@@H]2OCc2ccccc2)cc1 (some centres unmarked) [Entry 11]
IC50 [5, 23]: 2920 nM | CTG LD50 [6]: >42.02 µM

C[C@H](Cn1cnc2c(N)ncnc21)OCP(=O)(O)O [tenofovir]
EC50 [8]: 1200 nM

C[C@H](Cn1cnc2c(N)ncnc21)OCP(=O)(O)OC1CSSC[C@H]1OCc1ccccc1 (some centres unmarked) [Entry 16]
IC50 [5, 24]: > 8400 nM

CC(Cn1cnc2c(N)ncnc21)OCP(=O)(O)OP(=O)(O)OP(=O)(O)O (stereo in doubt) [tenofovir diphosphate]
half-life in peripheral blood mononuclear cells (PBMCs) [9]: > 100 h

Cc1ccccc1OP(=O)(CO[C@H](C)Cn1cnc2c(N)ncnc21)OC1CSSC[C@@H]1OCc1ccccc1 (some centres unmarked) [Entry 10]
IC50 [5, 23]: 2920 nM | CTG LD50 [6]: >42.02 µM

C[C@H](Cn1cnc2c(N)ncnc21)OCP(=O)(Oc1cccc(Cl)c1)OC1CSSC[C@@H]1OCc1ccccc1 (some centres unmarked) [Entry 6]
IC50 [5, 23]: 1880 nM | CTG LD50 [6]: >8.403 µM

COCCOCCOCCO[C@H]1CSSCC1OP1(=O)OCC2O[C@@H](n3ccc(=O)[nH]c3=O)[C@](C)(O)[C@@H]2O1 (single isomer, unassigned) [drawing 111 isomer 3 and 4]
EC50 [1, 17]: 4000 nM | EC90 [1, 18]: 12000 nM | EC50 [2, 19]: 7000 nM | EC90 [2, 20]: 16000 nM | EC50 [3, 21]: 14000 nM | EC90 [3, 22]: 37000 nM

C[C@H](Cn1cnc2c(N)ncnc21)OCP(=O)(Oc1ccccc1Cl)OC1CSSC[C@@H]1OCc1ccccc1 (some centres unmarked) [Entry 7]
IC50 [5, 23]: 1590 nM | CTG LD50 [6]: >8.403 µM

COc1ccccc1OP(=O)(CO[C@H](C)Cn1cnc2c(N)ncnc21)OC1CSSC[C@@H]1OCc1ccccc1 (some centres unmarked) [Entry 12]
IC50 [5, 23]: 1550 nM | CTG LD50 [6]: >39.78 µM
